Measurements reported in the CheMixHub viscosity set.
± gives the uncertainty stated by the source.

Test: xn = mol fraction of the nth substance listed
Settings: 101 kPa

O=S1(=O)CCCC1 + CO
viscosity [mPa·s]
Settings | 298.15 K | 303.15 K | 308.15 K | 313.15 K | 323.15 K
x1 = 0.0496 | 0.607 ± 0.016 | 0.569 ± 0.015 | – | 0.498 ± 0.013 | 0.437 ± 0.012
x1 = 0.068 | – | 0.5856 ± 0.0062 | 0.5474 ± 0.0058 | 0.5133 ± 0.0055 | –
x1 = 0.0966 | 0.694 ± 0.018 | 0.648 ± 0.017 | – | 0.565 ± 0.015 | 0.495 ± 0.013
x1 = 0.1103 | – | 0.6512 ± 0.0069 | 0.6081 ± 0.0065 | 0.5686 ± 0.0061 | –
x1 = 0.1632 | 0.814 ± 0.021 | 0.757 ± 0.02 | – | 0.661 ± 0.017 | 0.579 ± 0.015
x1 = 0.1658 | – | 0.756 ± 0.008 | 0.7042 ± 0.0075 | 0.6574 ± 0.007 | –
x1 = 0.2274 | – | 0.8999 ± 0.0097 | 0.8344 ± 0.0089 | 0.7787 ± 0.0082 | –
x1 = 0.2282 | 0.985 ± 0.026 | 0.916 ± 0.024 | – | 0.792 ± 0.021 | 0.686 ± 0.018
x1 = 0.306 | 1.227 ± 0.032 | 1.137 ± 0.03 | – | 0.986 ± 0.026 | 0.867 ± 0.023
x1 = 0.3087 | – | 1.13 ± 0.012 | 1.047 ± 0.011 | 0.9753 ± 0.01 | –
x1 = 0.3969 | 1.587 ± 0.042 | 1.458 ± 0.038 | – | 1.238 ± 0.032 | 1.062 ± 0.028
x1 = 0.4056 | – | 1.495 ± 0.017 | 1.378 ± 0.015 | 1.279 ± 0.014 | –
x1 = 0.5037 | 2.208 ± 0.058 | 2.022 ± 0.053 | – | 1.687 ± 0.044 | 1.467 ± 0.038
x1 = 0.5284 | – | 2.142 ± 0.026 | 1.96 ± 0.022 | 1.803 ± 0.02 | –
x1 = 0.6337 | 3.233 ± 0.084 | 2.982 ± 0.078 | – | 2.466 ± 0.064 | 2.125 ± 0.055
x1 = 0.6422 | – | 3.025 ± 0.038 | 2.753 ± 0.032 | 2.515 ± 0.028 | –
x1 = 0.7703 | – | 4.551 ± 0.069 | 4.1 ± 0.05 | 3.722 ± 0.043 | –
x1 = 0.7949 | 5.516 ± 0.14 | 5.126 ± 0.13 | – | 4.165 ± 0.11 | 3.476 ± 0.09
